Measured values as given in patent US20250290117A1, “MOLECULAR PHENOTYPIC ANTIMICROBIAL SUSCEPTIBILITY TESTING” (priority 2024, published 2025).

How the values were obtained:
Escherichia coli = test: Molecular phenotypic antimicrobial susceptibility test (extraction or DNA purification prior to PCR); assay type: cell-based
Procedure: (§1) Detection of Molecular Phenotypic Antimicrobial Susceptibility. Disclosed herein are the methods for the detection of phenotypic antimicrobial susceptibility via molecular methods. The present invention describes how a specimen 100 with a known microbial load is incubated and then exposed to a panel of antimicrobial agents to determine sensitivity (prevention of growth) or resistance (allowance of growth) to the specific antimicrobial agents tested utilizing molecular methods.
(§2) Sample Collection. Specimens 100 are collected from patients using sterile collection processes that are employed in routine clinical care. Specimens are transported to the testing facility in boric acid preservative.
Preparation of the Specimens for Testing. […] The process for pathogen isolation includes steps of harvesting the pathogen (e.g., via centrifugation), isolating pathogen DNA via a DNA isolation and/or purification kit, and performing PCR on the pathogen DNA via PCR components (e.g., primers, enzymes, buffers) as would be known to the skilled artisan. […] This aliquot is used for antimicrobial susceptibility testing if indicated based on the pathogen detection results. […] Specimens 100 with lower pathogen loads could also be utilized in the antibiotic susceptibility phase of testing with or without a longer incubation period.
(§3) Preparation of Antimicrobial Susceptibility Testing Plates. Antimicrobial solutions are prepared at known concentrations. The specific antimicrobials and their concentrations are selected based on the pathogen of interest and the described antimicrobial resistance breakpoints for that specimen pathogen and antimicrobial combination. These antimicrobials have been selected based on those commonly utilized by healthcare providers in routine clinical care for the specific type of suspected infection. The number and types of antimicrobials utilized can be customized based on the infection source, pathogen detected, patient-specific factors such as allergies or other health conditions (e.g., chronic kidney disease or concurrent medication use), or healthcare provider preferences such as antimicrobial availability or cost.
The antimicrobial solutions are prepared in liquid culture media (such as Muller Hinton Broth) to achieve the desired antimicrobial concentration and are then stored at −80° C. until use. For a given specimen, each antimicrobial is tested at a single or multiple antimicrobial concentration(s) which is its established breakpoints for sensitivity. The antimicrobial solutions are prepared and plated out for each specific pathogen. […] This allows for evaluation of pathogen load when no antimicrobial is present.
Specimen Exposure to Antimicrobial Agents. The 1 mL aliquot of the specimen 100 previously mixed with culture media and incubated is obtained. Using optical density measurements as a guide, the specimen 100 is diluted to 0.5 McFarland.
Antimicrobial exposure plates are typically placed into an incubator for 12-16 hours.
Nucleic Acid Amplification of Antimicrobial Agent Exposed Pathogens. The antimicrobial exposure plate is removed after the period of incubation. The specimen then undergoes a purification or lysis step. For example, the specimen may undergo a purification step (e.g., magnetic bead-based or other separation protocol to isolate genetic material). In another example, the specimen may undergo a cell lysis step. For example, buffer (e.g., lysis buffer) may be added and incubated in the thermal cycler for preparation for direct PCR. Next, the specimen may undergo a polymerase chain reaction (PCR) testing protocol, whereby a semi-quantitative PCR method is utilized. This may be completed either with or without a specific extraction protocol step. The pathogens can be individually targeted and detected, or a universal genetic sequence can be utilized to detect the antimicrobial susceptibility of the specimen as a whole.

M. morganii = test: Molecular phenotypic antimicrobial susceptibility test, specimen with two detected pathogens incubated together without isolation; assay type: cell-based, Morganella morganii; conditions: M. morganii in specimen with two detected pathogens (E. coli and M. morganii) incubated together; for Ct of Sensitive Breakpoint: Ct of controls (average) 19.99; for Molecular Antimicrobial Susceptibility Result: at sensitive breakpoint
Procedure: as §1
as §2, with “preservative. Specimens 100 are subsequently divided into a first sample 104 and a second sample 108.” for “preservative.”
Preparation of the Specimens for Testing. The specimens 100 are put through a pathogen identification process using PCR technology (e.g., using the first sample 104). The process for pathogen isolation includes steps of harvesting the pathogen (e.g., via centrifugation), isolating pathogen DNA via a DNA isolation and/or purification kit, and performing PCR on the pathogen DNA via PCR components (e.g., primers, enzymes, buffers) as would be known to the skilled artisan. Simultaneously, an additional aliquot of the same specimen (e.g., the second sample 108) is placed with liquid culture media and incubated for 4-6 hours. This aliquot is used for antimicrobial susceptibility testing if indicated based on the pathogen detection results. After pathogen identification is completed and if more than 10,000 cells/mL of bacteria (e.g., eligible bacteria) are detected in the source specimen, the second sample 108 then enters the antimicrobial susceptibility phase of testing. Specimens 100 with lower pathogen loads could also be utilized in the antibiotic susceptibility phase of testing with or without a longer incubation period.
as §3
The antimicrobial solutions are prepared in liquid culture media (such as Muller Hinton Broth) to achieve the desired antimicrobial concentration and are then stored at −80° C. until use. For a given specimen, each antimicrobial is tested at a single or multiple antimicrobial concentration(s) which is its established breakpoints for sensitivity. The antimicrobial solutions are prepared and plated out for each specific pathogen. This allows ease of use on the day of testing after defrosting the plate 112. Table 1, which illustrates the results of molecular phenotypic antimicrobial susceptibility testing when more than one organism is present in the source specimen, provides an example of an antimicrobial plate 112 prepared for this purpose. Of note, control wells containing only culture media are present on all plates 112. This allows for evaluation of pathogen load when no antimicrobial is present.
Specimen Exposure to Antimicrobial Agents. The 1 mL aliquot of the specimen 100 previously mixed with culture media and incubated is obtained. Using optical density measurements as a guide, the specimen 100 is diluted to 0.5 McFarland. […]

[1] = E. coli isolate 4, at sensitive breakpoint
[2] = E. coli isolate 5, Ct at control (average) 21.0933
[3] = E. coli isolate 5, at sensitive breakpoint
[4] = E. coli isolate 1, Ct at control (average) 21.238
[5] = E. coli isolate 1, at sensitive breakpoint
[6] = E. coli isolate 2, Ct at control (average) 21.270
[7] = E. coli isolate 2, at sensitive breakpoint
[8] = E. coli isolate 3, Ct at control (average) 22.0995
[9] = E. coli isolate 3, at sensitive breakpoint
[10] = E. coli isolate 4, Ct at control (average) 17.5733

SMILES | Molecular Antimicrobial Susceptibility Result (Escherichia coli; [1]) | Ct at Sensitive Breakpoint (Escherichia coli; [2]) | Molecular Antimicrobial Susceptibility Result (Escherichia coli; [3]) | Ct of Sensitive Breakpoint (M. morganii) | Molecular Antimicrobial Susceptibility Result (M. morganii) | Ct at Sensitive Breakpoint (Escherichia coli; [4]) | Molecular Antimicrobial Susceptibility Result (Escherichia coli; [5]) | Ct at Sensitive Breakpoint (Escherichia coli; [6]) | Molecular Antimicrobial Susceptibility Result (Escherichia coli; [7]) | Ct at Sensitive Breakpoint (Escherichia coli; [8]) | Molecular Antimicrobial Susceptibility Result (Escherichia coli; [9]) | Ct at Sensitive Breakpoint (Escherichia coli; [10])
CC1(C)S[C@@H]2[C@H](NC(=O)[C@H](N)c3ccccc3)C(=O)N2[C@H]1C(=O)O [Ampicillin] | Resistant | 24.64 | Sensitive (Antimicrobial wells with pathogen load detected below the control wells (typically >2 cycle thresholds later) may be reported as Sensitive) | 20.73 | Resistant |  |  |  |  |  |  | 
Cc1nnc(SCC2=C(C(=O)O)N3C(=O)[C@@H](NC(=O)Cn4cnnn4)[C@H]3SC2)s1 [Cefazolin] | Resistant | 25.36 | Sensitive (Antimicrobial wells with pathogen load detected below the control wells (typically >2 cycle thresholds later) may be reported as Sensitive) | 21.60 | Resistant | 20.925 | Resistant | 19.313 | Resistant | 20.834 | Resistant | 17.23
CO/N=C(\C(=O)N[C@@H]1C(=O)N2C(C(=O)[O-])=C(C[N+]3(C)CCCC3)CS[C@H]12)c1csc(N)n1 [Cefepime] | Resistant | 26.77 | Sensitive (Antimicrobial wells with pathogen load detected below the control wells (typically >2 cycle thresholds later) may be reported as Sensitive) | 29.72 | Sensitive (Antimicrobial wells with pathogen load detected below the control wells (typically >2 cycle thresholds later) may be reported as Sensitive) |  |  |  |  |  |  | 17.09
CO[C@@]1(NC(=O)Cc2cccs2)C(=O)N2C(C(=O)O)=C(COC(N)=O)CS[C@@H]21 [Cefoxitin] | Sensitive (Antimicrobial wells with pathogen load detected below the control wells (typically >2 cycle thresholds later) may be reported as Sensitive) | 24.72 | Sensitive (Antimicrobial wells with pathogen load detected below the control wells (typically >2 cycle thresholds later) may be reported as Sensitive) | 23.01 | Sensitive (Antimicrobial wells with pathogen load detected below the control wells (typically >2 cycle thresholds later) may be reported as Sensitive) |  |  |  |  |  |  | 24.09
CO/N=C(\C(=O)N[C@@H]1C(=O)N2C(C(=O)O)=C(CSc3nc(=O)c(=O)[nH]n3C)CS[C@H]12)c1csc(N)n1 [Ceftriaxone] | Resistant | 25.48 | Sensitive (Antimicrobial wells with pathogen load detected below the control wells (typically >2 cycle thresholds later) may be reported as Sensitive) | 30.03 | Sensitive (Antimicrobial wells with pathogen load detected below the control wells (typically >2 cycle thresholds later) may be reported as Sensitive) | 19.368 | Resistant | 20.665 | Resistant | 18.979 | Resistant | 17.74
O=C(O)c1cn(C2CC2)c2cc(N3CCNCC3)c(F)cc2c1=O [Ciprofloxacin] | Resistant | 33.02 | Sensitive (Antimicrobial wells with pathogen load detected below the control wells (typically >2 cycle thresholds later) may be reported as Sensitive) | 34.71 | Sensitive (Antimicrobial wells with pathogen load detected below the control wells (typically >2 cycle thresholds later) may be reported as Sensitive) | 20.351 | Resistant | 19.988 | Resistant | 21.394 | Resistant | 17.68
C[C@@H]1O[C@@H]1P(=O)(O)O [Fosfomycin] |  |  |  | 33.43 | Sensitive (Antimicrobial wells with pathogen load detected below the control wells (typically >2 cycle thresholds later) may be reported as Sensitive) |  |  |  |  |  |  | 
C[C@H]1COc2c(N3CCN(C)CC3)c(F)cc3c(=O)c(C(=O)O)cn1c23 [Levofloxacin] | Resistant | 33.85 | Sensitive (Antimicrobial wells with pathogen load detected below the control wells (typically >2 cycle thresholds later) may be reported as Sensitive) | 29.62 | Sensitive (Antimicrobial wells with pathogen load detected below the control wells (typically >2 cycle thresholds later) may be reported as Sensitive) | 20.768 | Resistant | 19.100 | Resistant | 29.342 | Resistant | 17.88
CN(C)[C@@H]1C(O)=C(C(N)=O)C(=O)[C@@]2(O)C(O)=C3C(=O)c4c(O)cccc4[C@@](C)(O)[C@H]3C[C@@H]12 [Tetracycline] |  |  |  | 31.64 | Sensitive (Antimicrobial wells with pathogen load detected below the control wells (typically >2 cycle thresholds later) may be reported as Sensitive) |  |  |  |  |  |  | 
